According to patent US9242996B2 (Novartis AG, priority 2013, dated 2016):

molecular target: activated ERK2 (Homo sapiens (Human), UniProt P28482); assay: Activated ERK2 (20 pM) Kinase Assay (AlphaScreen, ERKtide phosphorylation); assay type: biochemical; details: 0.02 nM ERK2, 400 nM ERKtide peptide, 35 μM ATP, 30 min preincubation
Summary of the method: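 Activated human ERK2 (0.02 nM) preincubated 30 min with compounds, then 400 nM ERKtide and 35 μM ATP added for 4 h at ambient temperature in HEPES pH 7.5, MgCl2, DTT, Tween-20, BSA. EDTA stop; phospho-peptide read by AlphaScreen after overnight dark incubation; four-parameter IC50.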

Chain of activated ERK2 (P28482 whole entry): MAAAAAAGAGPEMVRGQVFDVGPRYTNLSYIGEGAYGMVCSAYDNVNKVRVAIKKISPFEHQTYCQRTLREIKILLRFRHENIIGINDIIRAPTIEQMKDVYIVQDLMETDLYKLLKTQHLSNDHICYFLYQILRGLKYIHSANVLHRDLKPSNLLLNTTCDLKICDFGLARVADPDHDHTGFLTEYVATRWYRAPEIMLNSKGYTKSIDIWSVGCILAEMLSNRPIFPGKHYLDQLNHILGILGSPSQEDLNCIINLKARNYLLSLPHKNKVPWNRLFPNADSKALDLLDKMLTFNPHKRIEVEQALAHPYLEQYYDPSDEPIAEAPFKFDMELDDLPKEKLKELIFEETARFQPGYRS

Compared with `CNC[C@@H](NC(=O)c1ccc(-c2nc(C3CCOCC3)cnc2N)cc1F)c1cccc(Br)c1` [Example 380, (S)-4-(3-amino-6-(tetrahydro-2H-pyran-4-yl)pyrazin-2-yl)-N-(1-(3-bromophenyl)-2-(methylamino)ethyl)-2-fluorobenzamide], `NC[C@@H](NC(=O)c1ccc(-c2nc(C3CCOCC3)cnc2N)cc1F)c1cccc(Br)c1` [Example 414, (S)-N-(2-amino-1-(3-bromophenyl)ethyl)-4-(3-amino-6-(tetrahydro-2H-pyran-4-yl)pyrazin-2-yl)-2-fluorobenzamide] is 2.1-fold higher in IC50: 0.0097 nM for the first, 0.02 nM for the second. The first is the more potent here.

Compared with `CNC[C@@H](NC(=O)c1ccc(-c2nc([C@H]3CC[C@H](O)CC3)cnc2N)cc1F)c1cccc(Br)c1` [Example 381, 4-(3-amino-6-((1r,4S)-4-hydroxy-cyclohexyl)pyrazin-2-yl)-N-((S)-1-(3-bromophenyl)-2-(methylamino)ethyl)-2-fluorobenzamide], `CNC[C@@H](NC(=O)c1ccc(-c2nc([C@H]3CC[C@H](O)CC3)cnc2N)cc1F)c1cccc(Cl)c1` [Example 401, 4-(3-amino-6-((1r,4S)-4-hydroxy-cyclohexyl)pyrazin-2-yl)-N-((S)-1-(3-chlorophenyl)-2-(methylamino)ethyl)-2-fluorobenzamide] is 2.2-fold higher in IC50: 0.0209 nM for the first, 0.0463 nM for the second.

Compared with `CO[C@H]1CC[C@H](c2cnc(N)c(-c3ccc(C(=O)N[C@H](CN)c4cc(F)cc(I)c4)c(F)c3)n2)CC1` [Example 382, N-((S)-2-amino-1-(3-fluoro-5-iodophenyl)ethyl)-4-(3-amino-6-((1r,4S)-4-methoxy-cyclohexyl)pyrazin-2-yl)-2-fluorobenzamide], `CO[C@H]1CC[C@H](c2cnc(N)c(-c3ccc(C(=O)N[C@H](CN)c4cccc(Br)c4)c(F)c3)n2)CC1` [Example 383, N-((S)-2-amino-1-(3-bromophenyl)ethyl)-4-(3-amino-6-((1r,4S)-4-methoxy-cyclohexyl)pyrazin-2-yl)-2-fluorobenzamide] is 6.4-fold higher in IC50: 0.0107 nM for the first, 0.0689 nM for the second. The first is the more potent here.

First: CSc1cccc([C@@H](CO)NC(=O)c2ccc(-c3nc(C4CCOCC4)cnc3N)cc2F)c1 [Example 387, (S)-4-(3-amino-6-(tetrahydro-2H-pyran-4-yl)pyrazin-2-yl)-2-fluoro-N-(2-hydroxy-1-(3-(methylthio)phenyl)ethyl)benzamide]
Second: CSc1cccc([C@@H](CO)NC(=O)c2ccc(-c3nc([C@H]4CC[C@H](O)CC4)cnc3N)cc2F)c1 [Example 388, 4-(3-amino-6-((1r,4S)-4-hydroxy-cyclohexyl)pyrazin-2-yl)-2-fluoro-N-((S)-2-hydroxy-1-(3-(methylthio)phenyl)ethyl)benzamide]
The IC50 of the first is 2.7-fold lower: 0.01 nM for the first, 0.0269 nM for the second.

First: Nc1ncc(C2CCOCC2)nc1-c1ccc(C(=O)N[C@H](CO)c2cc(F)cc(CCl)c2)c(F)c1 [Example 390, (S)-4-(3-amino-6-(tetrahydro-2H-pyran-4-yl)pyrazin-2-yl)-N-(1-(3-(chloromethyl)-5-fluorophenyl)-2-hydroxyethyl)-2-fluorobenzamide]
Second: CSc1cc(F)cc([C@@H](CO)NC(=O)c2ccc(-c3nc(C4CCOCC4)cnc3N)cc2F)c1 [Example 395, (S)-4-(3-amino-6-(tetrahydro-2H-pyran-4-yl)pyrazin-2-yl)-2-fluoro-N-(1-(3-fluoro-5-(methylthio)phenyl)-2-hydroxyethyl) benzamide]
The IC50 of the first is 2.9-fold higher: 0.0242 nM for the first, 0.00827 nM for the second.

`CSc1cc(F)cc([C@@H](CO)NC(=O)c2ccc(-c3cc(-c4cn(C)nc4C)cnc3N)cc2F)c1` [Example 394, (S)-4-(2-amino-5-(1,3-dimethyl-1H-pyrazol-4-yl)pyridin-3-yl)-2-fluoro-N-(1-(3-fluoro-5-(methylthio)phenyl)-2-hydroxyethyl) benzamide] and `CSc1cc(F)cc([C@@H](CO)NC(=O)c2ccc(-c3nc([C@H]4CC[C@H](O)CC4)cnc3N)cc2F)c1` [Example 396, 4-(3-amino-6-((1r,4S)-4-hydroxy-cyclohexyl)pyrazin-2-yl)-2-fluoro-N-((S)-1-(3-fluoro-5-(methylthio)phenyl)-2-hydroxyethyl) benzamide] are within 1.5-fold of each other in IC50: 0.0153 nM for the first, 0.0198 nM for the second.

`C[C@@H](O)[C@@H](NC(=O)c1ccc(-c2nc([C@H]3CC[C@H](O)CC3)cnc2N)cc1F)c1cccc(Cl)c1` [Example 398, 4-(3-amino-6-((1r,4S)-4-hydroxy-cyclohexyl)pyrazin-2-yl)-N-((1S,2R)-1-(3-chlorophenyl)-2-hydroxypropyl)-2-fluorobenzamide] and `CC(=O)NC[C@@H](NC(=O)c1ccc(-c2nc([C@H]3CC[C@H](O)CC3)cnc2N)cc1F)c1cccc(Cl)c1` [Example 405, N-((S)-2-acetamido-1-(3-chlorophenyl)ethyl)-4-(3-amino-6-((1r,4S)-4-hydroxy-cyclohexyl)pyrazin-2-yl)-2-fluorobenzamide] are within 1.5-fold of each other in IC50: 0.281 nM for the first, 0.238 nM for the second.

First: [N-]=[N+]=NC[C@@H](NC(=O)c1ccc(-c2nc(C3CCOCC3)cnc2N)cc1F)c1cccc(Cl)c1 [Example 404, (S)-4-(3-amino-6-(tetrahydro-2H-pyran-4-yl)pyrazin-2-yl)-N-(2-azido-1-(3-chlorophenyl)ethyl)-2-fluorobenzamide]
Second: COC(=O)NC[C@@H](NC(=O)c1ccc(-c2nc(C3CCOCC3)cnc2N)cc1F)c1cccc(Cl)c1 [Example 407, (S)-methyl (2-(4-(3-amino-6-(tetrahydro-2H-pyran-4-yl)pyrazin-2-yl)-2-fluoro-benzamido)-2-(3-chlorophenyl)ethyl)carbamate]
The IC50 of the first is 2.9-fold lower: 0.115 nM for the first, 0.333 nM for the second.

`CO[C@H]1CC[C@H](c2cnc(N)c(-c3ccc(C(=O)N[C@H](CNC(C)=O)c4cccc(Cl)c4)c(F)c3)n2)CC1` [Example 406, N-((S)-2-acetamido-1-(3-chlorophenyl)ethyl)-4-(3-amino-6-((1r,4S)-4-methoxy-cyclohexyl)pyrazin-2-yl)-2-fluorobenzamide] and `COC(=O)NC[C@@H](NC(=O)c1ccc(-c2nc(C3CCOCC3)cnc2N)cc1F)c1cccc(Br)c1` [Example 409, (S)-methyl (2-(4-(3-amino-6-(tetrahydro-2H-pyran-4-yl)pyrazin-2-yl)-2-fluoro-benzamido)-2-(3-bromophenyl)ethyl)carbamate] are within 1.5-fold of each other in IC50: 0.249 nM for the first, 0.225 nM for the second.

Going from `CC(=O)NC[C@@H](NC(=O)c1ccc(-c2nc(C3CCOCC3)cnc2N)cc1F)c1cc(F)cc(Br)c1` [Example 408, (S)-N-(2-acetamido-1-(3-bromo-5-fluorophenyl)ethyl)-4-(3-amino-6-(tetrahydro-2H-pyran-4-yl)pyrazin-2-yl)-2-fluorobenzamide] to `COC(=O)NC[C@@H](NC(=O)c1ccc(-c2nc(C3CCOCC3)cnc2N)cc1F)c1cc(F)cc(Br)c1` [Example 410, (S)-methyl (2-(4-(3-amino-6-(tetrahydro-2H-pyran-4-yl)pyrazin-2-yl)-2-fluoro-benzamido)-2-(3-bromo-5-fluorophenyl)ethyl) carbamate], the IC50 rises from 0.0201 nM to 0.0943 nM (4.7-fold). The first is the more potent here.

Going from `Nc1ncc(C2CCOCC2)nc1-c1ccc(C(=O)N[C@H](CNCCF)c2cc(F)cc(Br)c2)c(F)c1` [Example 411, (S)-4-(3-amino-6-(tetrahydro-2H-pyran-4-yl)pyrazin-2-yl)-N-(1-(3-bromo-5-fluorophenyl)-2-((2-fluoroethyl)amino)ethyl)-2-fluorobenzamide] to `Nc1ncc([C@H]2CC[C@H](O)CC2)nc1-c1ccc(C(=O)N[C@H](CNCCF)c2cc(F)cc(Br)c2)c(F)c1` [Example 412, 4-(3-amino-6-((1r,4S)-4-hydroxy-cyclohexyl)pyrazin-2-yl)-N-((S)-1-(3-bromo-5-fluorophenyl)-2-((2-fluoroethyl)amino)ethyl)-2-fluorobenzamide], the IC50 rises from 0.0743 nM to 0.374 nM (5-fold).
